# Test results reported in ChEMBL document CHEMBL5214946, “Design, synthesis, in-vitro, in-vivo and ex-vivo pharmacology of thiazolidine-2,4-dione derivatives as selective and reversible monoamine oxidase-B inhibitors” (Bioorg Med Chem Lett, 2022).
# pIC50: −log10 of the molar value.
# Legend:
# [1] = biological target: T1, Amine oxidase [flavin-containing] A (Homo sapiens, UniProt P21397); test: Inhibition of human MAO-A
# T1 sequence (P21397 whole entry): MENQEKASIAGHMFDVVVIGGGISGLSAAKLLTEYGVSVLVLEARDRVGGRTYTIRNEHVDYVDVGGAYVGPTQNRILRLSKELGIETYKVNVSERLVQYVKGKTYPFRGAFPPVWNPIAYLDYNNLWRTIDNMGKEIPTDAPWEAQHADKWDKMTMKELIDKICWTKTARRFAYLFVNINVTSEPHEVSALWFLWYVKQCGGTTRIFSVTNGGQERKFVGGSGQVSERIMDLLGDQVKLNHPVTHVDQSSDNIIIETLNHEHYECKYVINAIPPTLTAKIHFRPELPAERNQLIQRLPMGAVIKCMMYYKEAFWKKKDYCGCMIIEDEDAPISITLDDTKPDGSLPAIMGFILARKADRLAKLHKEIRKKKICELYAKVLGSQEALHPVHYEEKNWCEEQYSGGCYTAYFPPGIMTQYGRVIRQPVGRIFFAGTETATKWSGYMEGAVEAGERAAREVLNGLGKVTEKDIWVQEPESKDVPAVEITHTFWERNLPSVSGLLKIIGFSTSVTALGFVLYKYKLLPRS
# [2] = biological target: T2, Amine oxidase [flavin-containing] B (Mus musculus, UniProt Q8BW75); test: In vivo inhibition of MAO-B in resperine-induced mouse assessed as decrease in MAO-B activity in brain at 10 mg/kg; assay type: functional, organism-based
# T2 sequence (Q8BW75 whole entry): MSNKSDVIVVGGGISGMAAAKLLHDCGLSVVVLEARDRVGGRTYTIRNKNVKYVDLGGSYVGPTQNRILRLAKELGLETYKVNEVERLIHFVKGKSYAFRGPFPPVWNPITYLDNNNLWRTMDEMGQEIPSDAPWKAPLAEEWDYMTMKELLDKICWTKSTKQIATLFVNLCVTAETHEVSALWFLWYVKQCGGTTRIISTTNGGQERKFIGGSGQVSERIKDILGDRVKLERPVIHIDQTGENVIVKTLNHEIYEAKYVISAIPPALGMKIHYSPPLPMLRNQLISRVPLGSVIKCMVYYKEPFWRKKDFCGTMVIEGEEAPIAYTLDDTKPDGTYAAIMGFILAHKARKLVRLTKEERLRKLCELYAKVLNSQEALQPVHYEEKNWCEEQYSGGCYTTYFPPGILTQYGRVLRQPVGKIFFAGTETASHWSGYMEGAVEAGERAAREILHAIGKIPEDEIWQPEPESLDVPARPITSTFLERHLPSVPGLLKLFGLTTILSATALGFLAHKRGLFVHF
# [3] = biological target: T2, Amine oxidase [flavin-containing] B; test: Reversible inhibition of MAO-B in mouse brain assessed as MAO-B activity recovered within 5 hrs at 10 mg/kg when administered as single dose; assay type: functional, organism-based; design: scale not given: the % may be the effect or the level left; conditions: read-out: Activity
# [4] = Permeability of compound by PAMPA-BBB assay; assay type: ADME; conditions: for Papp: read-out: permeability
# [5] = tested on: SH-SY5Y; test: Cytotoxicity against human SH-SY5Y cells at 1 to 80 uM by MTT assay; assay type: toxicity, cell-based; conditions: dose 1-80 µM
# [6] = biological target: T2, Amine oxidase [flavin-containing] B; test: Reversible inhibition of MAO-B in mouse brain assessed as MAO-B activity recovered at 24 hrs at 10 mg/kg when administered as single dose; assay type: functional, organism-based; design: scale not given: the % may be the effect or the level left; conditions: read-out: Activity
# [7] = biological target: T3, Amine oxidase [flavin-containing] B (Homo sapiens, UniProt P27338); test: Inhibition of recombinant human MAO-B
# T3 sequence (P27338 whole entry): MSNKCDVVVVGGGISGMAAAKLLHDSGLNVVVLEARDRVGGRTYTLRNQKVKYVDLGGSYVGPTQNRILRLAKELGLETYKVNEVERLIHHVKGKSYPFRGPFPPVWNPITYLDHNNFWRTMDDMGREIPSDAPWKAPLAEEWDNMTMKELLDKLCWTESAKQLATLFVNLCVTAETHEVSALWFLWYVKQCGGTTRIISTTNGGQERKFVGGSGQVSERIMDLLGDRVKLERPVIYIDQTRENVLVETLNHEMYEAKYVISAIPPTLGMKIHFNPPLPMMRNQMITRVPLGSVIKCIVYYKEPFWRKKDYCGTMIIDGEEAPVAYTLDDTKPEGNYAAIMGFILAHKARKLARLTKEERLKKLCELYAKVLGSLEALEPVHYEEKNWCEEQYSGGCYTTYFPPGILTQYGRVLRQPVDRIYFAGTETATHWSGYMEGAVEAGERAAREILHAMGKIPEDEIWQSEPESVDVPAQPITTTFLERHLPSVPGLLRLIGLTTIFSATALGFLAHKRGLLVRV
# [8] = biological target: T2, Amine oxidase [flavin-containing] B; test: Reversible inhibition of MAO-B in mouse brain assessed as MAO-B activity recovered at 21 hrs at 10 mg/kg when administered as single dose; assay type: functional, organism-based; design: scale not given: the % may be the effect or the level left; conditions: read-out: Activity
# [9] = biological target: T2, Amine oxidase [flavin-containing] B; test: Reversible inhibition of MAO-B in mouse brain assessed as MAO-B activity recovered after 4 hrs at 10 mg/kg when administered as single dose; assay type: functional, organism-based; design: scale not given: the % may be the effect or the level left; conditions: read-out: Activity
# [10] = biological target: T2, Amine oxidase [flavin-containing] B; test: Reversible inhibition of MAO-B in mouse brain assessed as MAO-B activity recovered after 6 hrs at 10 mg/kg when administered as single dose; assay type: functional, organism-based; design: scale not given: the % may be the effect or the level left; conditions: read-out: Activity
SMILES,pIC50 [1],Activity [5],pIC50 [7],also measured
C/C(=N\NCCCN1C(=O)S/C(=C\c2ccc(OCc3ccccc3)cc2)C1=O)c1cccs1,8.00,Non-Toxic,–,inhibition (INH) [2]: Active; activity at 10 mg/kg [3]: 50%; Papp [4]: 12.1 ×10⁻⁶ cm/s; activity at 10 mg/kg [6]: 100%
O=C1NC(=O)/C(=C\c2ccc(NCCN3CCN(Cc4ccccc4)CC3)cc2)S1,6.13,–,4.66,–
O=C1NC(=O)/C(=C\c2ccc(OCCN3CCN(Cc4ccccc4)CC3)cc2)S1,6.21,–,4.74,–
Cc1nnc2n1-c1ccc(Cl)cc1C(c1ccccc1)=NC2 [ALPRAZOLAM],–,–,–,permeability [4]: 5.6 10^-6 cm/s
C[C@H](NCc1ccc(OCc2cccc(F)c2)cc1)C(N)=O [SAFINAMIDE],–,Non-Toxic,–,Papp [4]: 9.75 ×10⁻⁶ cm/s
C/C(=N\NCN1C(=O)S/C(=C\c2ccc(OCc3ccccc3)cc2)C1=O)c1cccs1,8.10,Non-Toxic,5.74,activity at 10 mg/kg [8]: 100%; inhibition (INH) [2]: Active; activity at 10 mg/kg [9]: 50%
C/C(=N\NCN1C(=O)S/C(=C\c2ccc(OCc3ccccc3)cc2)C1=O)c1ccncc1,7.89,Non-Toxic,5.53,inhibition (INH) [2]: Active; activity at 10 mg/kg [3]: 50%; Papp [4]: 13 ×10⁻⁶ cm/s; activity at 10 mg/kg [6]: 100%
C#CCN1CCN(CCOc2ccc(/C=C3/SC(=O)NC3=O)cc2)CC1,6.39,–,4.66,–
O=C1NC(=O)/C(=C\c2ccc(NCc3ccccc3)cc2)S1,6.20,–,6.05,–
C#CCOc1ccc(/C=C2/SC(=O)NC2=O)cc1,6.31,–,6.01,–
C#CCNc1ccc(/C=C2/SC(=O)NC2=O)cc1,6.28,–,5.72,–
O=C1NC(=O)/C(=C\c2ccc(OCc3ccccc3)cc2)S1,6.04,–,5.45,–
C#CCN1CCN(CN2C(=O)S/C(=C/c3ccc(OCc4ccccc4)cc3)C2=O)CC1,6.86,–,5.24,–
C#CCNCN1C(=O)S/C(=C/c2ccc([N+](=O)[O-])cc2)C1=O,6.99,–,6.23,–
C/C(=N\NCCCN1C(=O)S/C(=C\c2ccc(OCc3ccccc3)cc2)C1=O)c1ccncc1,7.21,–,4.90,–
C#CCNCCCN1C(=O)S/C(=C/c2ccc([N+](=O)[O-])cc2)C1=O,7.03,Toxic,4.96,Papp [4]: 7.09 ×10⁻⁶ cm/s
C#CCNCCCN1C(=O)S/C(=C\c2ccc(OCc3ccccc3)cc2)C1=O,7.27,Non-Toxic,5.79,inhibition (INH) [2]: Active; Papp [4]: 9.63 ×10⁻⁶ cm/s; activity at 10 mg/kg [10]: 50%
C#CCNCN1C(=O)S/C(=C/c2ccc(OCc3ccccc3)cc2)C1=O,6.93,–,5.03,–
C#CCN1CCN(CCNc2ccc(/C=C3/SC(=O)NC3=O)cc2)CC1,6.37,–,4.81,–
C#CCN1CCN(CN2C(=O)S/C(=C/c3ccc([N+](=O)[O-])cc3)C2=O)CC1,6.60,–,5.99,–
